In patent US10588952B2, “Conjugate vaccine using trimming function of ERAP1” (SUMITOMO DAINIPPON PHARMA CO., LTD., priority 2013, dated 2020):
≈ marks a conversion by molar mass, not a printed value.

How the values were obtained:
ERAP1 [1] = biological target: T1, ERAP1 (Homo sapiens, UniProt Q9NZ08); test: Test of trimming of N-terminal amino acid by ERAP1 (Experimental Example 10, Examples 85-103); type: biochemical; conditions: MAGE-A10 254-262 peptide obtained by ERAP1 trimming; from HPLC AUC
Experimental: The peptides synthesized in Examples 85-103 were evaluated for N-terminal amino acid trimming efficiency using ERAP1. 50 μl of ERAP1 solution (10 μg/ml) in pH 8.0, 20 mM Tris.HCl-100 mM NaCl buffer (Tris.HCl buffer) was added to 142 μl of Tris.HCl buffer. 10 mM peptide solution in DMSO (2.0 μl) and 6.0 μL of DMSO were added to the aforementioned ERAP1 solution, and the mixture was blended well and stood at 30° C. […] The peptide to be obtained by trimming was chemically synthesized separately, and analyzed under similar conditions in the absence of the enzyme. The formation ratio of the peptide [MAGE-A10254-262 peptide ([…]) (SEQ ID NO: 19)] obtained by trimming was determined based on the obtained AUC, and is shown in Tables 45 and 46. […]
(§1) pump: UFLC manufactured by Shimadzu […]
(§2) solution: 0.1% TFA H2O(A)-0.1% TFA CH3CN(B) […]
(§3) detection wavelength: λ=220 nm gradient: concentration of SOLUTION B was raised from 10% to 50% from 0.0 min to 8.5 min

ERAP1 [2] = biological target: T1, ERAP1; test: Test of trimming of N-terminal amino acid by ERAP1 (Experimental Example 11, Examples 50, 56, 64, 67); type: biochemical; conditions: Proteinase-3 169-177 peptide obtained by ERAP1 trimming; from HPLC AUC
Experimental: (§4) The peptides synthesized in Examples 50, 56, 64 and 67 were evaluated for N-terminal amino acid trimming efficiency using ERAP1. 50 μl of ERAP1 solution (10 μg/ml) in pH 8.0, 20 mM Tris.HCl-100 mM NaCl buffer (Tris.HCl buffer) was added to 142 μl of Tris.HCl buffer. 10 mM peptide solution in DMSO (2.0 μl) and 6.0 μL of DMSO were added to the aforementioned ERAP1 solution, and the mixture was blended well and stood at 30° C. […] The peptide to be obtained by trimming was chemically synthesized separately, and analyzed under similar conditions in the absence of the enzyme. […]
as §1, §2, §3

ERAP1 [3] = biological target: T1, ERAP1; test: Time-course changes of trimming of N-terminal amino acid by ERAP1 (Experimental Example 2); type: biochemical; conditions: peptide obtained by trimming (SEQ ID NO: 53, 43 or 19), ERAP1 solution 0.5 mg/ml, room temperature
Experimental: 20 μl of ERAP1 solution (0.5 mg/ml) in Tris.HCl buffer was added to 172 μl of Tris.HCl buffer. 10 mM peptide solution in DMSO (8.0 μl) was added to the aforementioned ERAP1 solution, and the mixture was blended well and stood at room temperature. […]
pump: UFLC manufactured by Shimadzu column: Shim-pack XR-ODS 3.0 mmi.d.×75 mm solution: 0.05% TFA H2O(A)-0.05% TFA CH3CN(B) […]
detection wavelength: λ=220 nm gradient: Concentration of SOLUTION B was raised from 1.0% 70% from 0.0 min to 5.0 min […]
The peptide to be obtained by the trimming of the N-terminal amino acid(s) by ERAP1 is, […]

ERAP1 [4] = biological target: T1, ERAP1; test: Test of trimming of N-terminal amino acid by ERAP1 (Experimental Example 9, Examples 69-84); type: biochemical; conditions: MAGE-A10 254-262 peptide obtained by ERAP1 trimming; from HPLC AUC;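 further: peptide incubated with ERAP1 for 1 h before HPLC analysis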
Experimental: as §4, with “69-84” for “50, 56, 64 and 67”, “peptide” for “peptide to be”
as §1, §2, §3

T1 sequence (Q9NZ08 whole entry): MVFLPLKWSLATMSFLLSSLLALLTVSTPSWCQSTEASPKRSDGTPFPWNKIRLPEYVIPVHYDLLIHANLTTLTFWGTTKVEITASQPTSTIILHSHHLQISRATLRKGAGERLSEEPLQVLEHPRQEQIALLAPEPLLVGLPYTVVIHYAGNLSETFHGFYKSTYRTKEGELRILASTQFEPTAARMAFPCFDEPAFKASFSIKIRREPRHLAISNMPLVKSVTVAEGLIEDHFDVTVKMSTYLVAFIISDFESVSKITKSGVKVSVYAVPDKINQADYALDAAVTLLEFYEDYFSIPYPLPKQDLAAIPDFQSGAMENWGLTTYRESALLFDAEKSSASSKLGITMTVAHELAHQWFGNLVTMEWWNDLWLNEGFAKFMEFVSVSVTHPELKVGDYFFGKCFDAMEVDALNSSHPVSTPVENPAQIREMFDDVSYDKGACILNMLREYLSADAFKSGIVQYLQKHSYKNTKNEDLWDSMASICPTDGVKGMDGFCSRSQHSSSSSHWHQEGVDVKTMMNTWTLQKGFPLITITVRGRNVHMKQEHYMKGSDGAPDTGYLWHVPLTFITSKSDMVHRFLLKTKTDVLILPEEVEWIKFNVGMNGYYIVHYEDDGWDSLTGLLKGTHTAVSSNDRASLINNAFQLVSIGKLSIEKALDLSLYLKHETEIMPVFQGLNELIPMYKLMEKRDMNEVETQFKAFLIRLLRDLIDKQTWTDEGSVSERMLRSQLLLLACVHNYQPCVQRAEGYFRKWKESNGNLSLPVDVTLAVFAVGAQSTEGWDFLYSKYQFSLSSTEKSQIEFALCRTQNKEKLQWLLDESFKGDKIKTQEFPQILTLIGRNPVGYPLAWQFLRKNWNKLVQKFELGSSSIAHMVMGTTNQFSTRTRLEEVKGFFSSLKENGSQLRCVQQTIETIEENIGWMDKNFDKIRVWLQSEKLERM
Experimental for physchem: To prepare a test solution, about 1 mg of a test product was measured and the isotonic buffer (0.5 mL) was added thereto. The prepared solution was shaken at room temperature for 90 min (shaking conditions: RECIPRO SHAKER SR-1N manufactured by TAITEC, Speed=8), centrifuged (15000 rpm, 5 min, room temperature), and the supernatant after centrifugation was used as a test solution.
About 1 mg of the test product was accurately measured, dissolved in 0.1% TFA water/acetonitrile=1/1, made the total amount 10 mL, and this was used as a standard solution of the test product.
The standard solution of the test product and the test solution are analyzed by HPLC (under the analysis conditions described in Table 34), and the solubility of the test product is calculated from the ratio of peak area compared to the standard solution.
column: Chemcopack Quicksorb (4.6 mmφ×150 mm, 5 μm)
manufactured by Chemco Scientific Co., Ltd.
mobile phase: SOLUTION A; 0.1% TFA water, SOLUTION B;
0.1% TFA acetonitrile solution
column temperature: room temperature
detection wavelength: UV 254 nm, 230 nm (2 wavelength detection)
sample injection volume: 10

Molecule: CC[C@H](C)[C@H](NC(=O)[C@H](CCCCN)NC(=O)[C@@H](N)CSSC[C@H](N)C(=O)NCC(=O)N[C@@H](CC(C)C)C(=O)N[C@@H](Cc1ccc(O)cc1)C(=O)N[C@@H](CC(=O)O)C(=O)NCC(=O)N[C@@H](CCSC)C(=O)N[C@@H](CCC(=O)O)C(=O)N[C@@H](Cc1c[nH]cn1)C(=O)N[C@@H](CC(C)C)C(=O)O)C(=O)N[C@@H](Cc1ccccc1)C(=O)NCC(=O)N[C@@H](CO)C(=O)N[C@@H](CC(C)C)C(=O)N[C@@H](C)C(=O)N[C@@H](Cc1ccccc1)C(=O)N[C@@H](CC(C)C)C(=O)O [Example 29]
- solubility thermodynamic at 90 min (physchem; pH 6): 170 µg/mL (≈ 76.1 µM)
- solubility thermodynamic at 90 min (physchem; pH 7.4): > 1000 µg/mL

Molecule: CC[C@H](C)[C@H](NC(=O)[C@H](CCCCN)NC(=O)[C@@H](N)CSSC[C@H](N)C(=O)N[C@H](C)C(=O)N[C@@H](CCCCN)C(=O)N[C@@H](Cc1ccccc1)C(=O)N[C@H](C(=O)N[C@@H](C)C(=O)N[C@@H](C)C(=O)N[C@@H](Cc1c[nH]c2ccccc12)C(=O)N[C@H](C(=O)N[C@@H](CC(C)C)C(=O)N[C@@H](CCCCN)C(=O)N[C@@H](C)C(=O)N[C@@H](C)C(=O)N[C@H](C)C(=O)O)[C@@H](C)O)C(C)C)C(=O)N[C@@H](Cc1ccccc1)C(=O)NCC(=O)N[C@@H](CO)C(=O)N[C@@H](CC(C)C)C(=O)N[C@@H](C)C(=O)N[C@@H](Cc1ccccc1)C(=O)N[C@@H](CC(C)C)C(=O)O [Example 112]
- solubility thermodynamic at 90 min (physchem; pH 6): < 1 µg/mL
- solubility thermodynamic at 90 min (physchem; pH 7.4): 2 µg/mL (≈ 0.785 µM)

Molecule: CC[C@H](C)[C@H](NC(=O)[C@H](CCCCN)NC(=O)[C@@H](N)CSSC[C@H](NC(=O)[C@@H](C)NC(=O)[C@H](C)NC(=O)[C@H](C)NC(=O)[C@H](CCCCN)NC(=O)[C@H](CC(C)C)NC(=O)[C@@H](NC(=O)[C@H](Cc1c[nH]c2ccccc12)NC(=O)[C@H](C)NC(=O)[C@H](C)NC(=O)[C@@H](NC(=O)[C@H](Cc1ccccc1)NC(=O)[C@H](CCCCN)NC(=O)[C@@H](C)N)C(C)C)[C@@H](C)O)C(=O)O)C(=O)N[C@@H](Cc1ccccc1)C(=O)NCC(=O)N[C@@H](CO)C(=O)N[C@@H](CC(C)C)C(=O)N[C@@H](C)C(=O)N[C@@H](Cc1ccccc1)C(=O)N[C@@H](CC(C)C)C(=O)O [Example 113]
- solubility thermodynamic at 90 min (physchem; pH 6): < 1 µg/mL
- solubility thermodynamic at 90 min (physchem; pH 7.4): 2 µg/mL (≈ 0.785 µM)

Molecule: CC[C@H](C)[C@H](NC(=O)[C@@H](N)CCCCN)C(=O)N[C@@H](Cc1ccccc1)C(=O)NCC(=O)N[C@@H](CO)C(=O)N[C@@H](CC(C)C)C(=O)N[C@@H](C)C(=O)N[C@@H](Cc1ccccc1)C(=O)N[C@@H](CC(C)C)C(=O)O [SEQ ID NO: 53, reference compound]
- solubility thermodynamic at 90 min (physchem; pH 6): 100 µg/mL (≈ 100 µM)
- solubility thermodynamic at 90 min (physchem; pH 7.4): 123 µg/mL (≈ 124 µM)

Molecule: H-ACGLYDGMEHL-OH [Example 92]
- formation rate of GLYDGMEHL (SEQ ID NO: 19) (ERAP1 [1]): 5.2%

Molecule: H-ACVLQELNVTV-OH [Example 50]
- formation rate of VLQELNVTV (SEQ ID NO: 43) (ERAP1 [2]): 1.8%

Molecule: H-CAGLYDGMEHL-OH [Example 26]
- formation rate(%) 1 hr later (ERAP1 [3]): 87.8%
- formation rate(%) 2 hr later (ERAP1 [3]): 99.4%
- formation rate(%) 4 hr later (ERAP1 [3]): 103%
- formation rate(%) 8 hr later (ERAP1 [3]): 97.5%

Molecule: H-CAVLQELNVTV-OH [Example 22]
- formation rate(%) 1 hr later (ERAP1 [3]): 46.1%
- formation rate(%) 2 hr later (ERAP1 [3]): 49.9%
- formation rate(%) 4 hr later (ERAP1 [3]): 51.3%
- formation rate(%) 8 hr later (ERAP1 [3]): 53.5%

Molecule: H-CDGLYDGMEHL-OH [Example 83]
- formation rate of GLYDGMEHL (SEQ ID NO: 19) (ERAP1 [4]): 25.0%

Molecule: H-CEGLYDGMEHL-OH [Example 70]
- formation rate of GLYDGMEHL (SEQ ID NO: 19) (ERAP1 [4]): 6.2%

Molecule: H-CFGLYDGMEHL-OH [Example 75]
- formation rate of GLYDGMEHL (SEQ ID NO: 19) (ERAP1 [4]): 0.0%

Molecule: H-CGGLYDGMEHL-OH [Example 71]
- formation rate of GLYDGMEHL (SEQ ID NO: 19) (ERAP1 [4]): 0.0%

Molecule: H-CHGLYDGMEHL-OH [Example 72]
- formation rate of GLYDGMEHL (SEQ ID NO: 19) (ERAP1 [4]): 0.0%

Molecule: H-CIGLYDGMEHL-OH [Example 73]
- formation rate of GLYDGMEHL (SEQ ID NO: 19) (ERAP1 [4]): 0.4%

Molecule: H-CKGLYDGMEHL-OH [Example 74]
- formation rate of GLYDGMEHL (SEQ ID NO: 19) (ERAP1 [4]): 0.0%

Molecule: H-CLGLYDGMEHL-OH [Example 27]
- formation rate(%) 1 hr later (ERAP1 [3]): 58.3%
- formation rate(%) 2 hr later (ERAP1 [3]): 94.9%
- formation rate(%) 4 hr later (ERAP1 [3]): 88.4%
- formation rate(%) 8 hr later (ERAP1 [3]): 88.3%

Molecule: H-CLVLQELNVTV-OH [Example 23]
- formation rate(%) 1 hr later (ERAP1 [3]): 31.1%
- formation rate(%) 2 hr later (ERAP1 [3]): 36.9%
- formation rate(%) 4 hr later (ERAP1 [3]): 38.1%
- formation rate(%) 8 hr later (ERAP1 [3]): 36.1%

Molecule: H-CMGLYDGMEHL-OH [Example 28]
- formation rate(%) 1 hr later (ERAP1 [3]): 90.6%
- formation rate(%) 2 hr later (ERAP1 [3]): 103%
- formation rate(%) 4 hr later (ERAP1 [3]): 96.0%
- formation rate(%) 8 hr later (ERAP1 [3]): 101%

Molecule: H-CMVLQELNVTV-OH [Example 24]
- formation rate(%) 1 hr later (ERAP1 [3]): 28.7%
- formation rate(%) 2 hr later (ERAP1 [3]): 34.5%
- formation rate(%) 4 hr later (ERAP1 [3]): 36.5%
- formation rate(%) 8 hr later (ERAP1 [3]): 36.8%

Molecule: H-CNGLYDGMEHL-OH [Example 82]
- formation rate of GLYDGMEHL (SEQ ID NO: 19) (ERAP1 [4]): 82.2%

Molecule: H-CPGLYDGMEHL-OH [Example 76]
- formation rate of GLYDGMEHL (SEQ ID NO: 19) (ERAP1 [4]): 0.0%

Molecule: H-CQGLYDGMEHL-OH [Example 69]
- formation rate of GLYDGMEHL (SEQ ID NO: 19) (ERAP1 [4]): 56.9%

Molecule: H-CRGLYDGMEHL-OH [Example 81]
- formation rate of GLYDGMEHL (SEQ ID NO: 19) (ERAP1 [4]): 0.0%

Molecule: H-CSGLYDGMEHL-OH [Example 84]
- formation rate of GLYDGMEHL (SEQ ID NO: 19) (ERAP1 [4]): 1.1%
